The experiment addresses T1, BA/F3-FLT3-ITD + F691L cells (Homo sapiens, UniProt P36888, F691L, cells depend on it, form not given).
T1 sequence (P36888 1-993 F691L): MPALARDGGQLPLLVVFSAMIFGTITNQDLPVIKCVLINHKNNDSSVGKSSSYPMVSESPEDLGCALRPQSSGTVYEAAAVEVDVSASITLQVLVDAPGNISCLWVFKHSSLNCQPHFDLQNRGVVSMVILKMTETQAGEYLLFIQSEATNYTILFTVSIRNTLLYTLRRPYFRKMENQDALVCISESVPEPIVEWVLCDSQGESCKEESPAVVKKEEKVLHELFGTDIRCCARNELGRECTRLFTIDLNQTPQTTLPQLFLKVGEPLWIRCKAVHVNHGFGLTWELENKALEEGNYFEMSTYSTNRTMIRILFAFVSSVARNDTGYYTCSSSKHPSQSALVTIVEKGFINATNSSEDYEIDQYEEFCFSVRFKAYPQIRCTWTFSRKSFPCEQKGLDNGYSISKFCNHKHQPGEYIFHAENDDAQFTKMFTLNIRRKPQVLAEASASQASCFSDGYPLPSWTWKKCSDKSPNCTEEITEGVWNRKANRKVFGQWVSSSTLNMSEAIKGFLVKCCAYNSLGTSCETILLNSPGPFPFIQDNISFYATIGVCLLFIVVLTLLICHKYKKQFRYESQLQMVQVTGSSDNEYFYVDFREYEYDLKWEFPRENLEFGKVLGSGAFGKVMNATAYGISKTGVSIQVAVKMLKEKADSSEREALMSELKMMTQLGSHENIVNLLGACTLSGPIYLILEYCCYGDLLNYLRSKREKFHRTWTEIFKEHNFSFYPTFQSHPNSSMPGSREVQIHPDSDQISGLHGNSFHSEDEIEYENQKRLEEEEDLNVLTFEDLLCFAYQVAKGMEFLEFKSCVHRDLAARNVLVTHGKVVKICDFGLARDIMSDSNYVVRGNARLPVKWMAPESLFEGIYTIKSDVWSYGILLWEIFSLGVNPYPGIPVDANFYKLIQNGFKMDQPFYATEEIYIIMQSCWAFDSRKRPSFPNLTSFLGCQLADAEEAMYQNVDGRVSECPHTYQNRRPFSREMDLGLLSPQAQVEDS
The experiment in a line: BA/F3-FLT3-ITD + F691L cell proliferation assay (CellTiter-Glo). Format: cell-based, murine. The note with it: BaF3 FLT3 ITD/F691L cells; read-out: Cell Activity (IC50 μM) BaF3_FLT3_ITD/F691L. The text has this: The FLT3 inhibitors may also be assessed using leukemia cell lines that express endogenous FLT3-ITD or cells that are engineered to express wild-type or mutant FLT3. The cells expressing endogenous FLT3 are dependent upon FLT3 catalytic activity for growth. For the engineered cells, murine BA/F3 cells were transfected with full-length FLT3 (either wild-type, or containing the ITD, D835Y, or F691L mutations, as noted). The parental BA/F3 cells are dependent upon Interleukin-3 (IL-3) for survival, and introduction of the FLT3 constructs renders these cells dependent upon FLT3 kinase activity when cultured in the absence of IL-3. Engineered BA/F3 cell growth assays can be performed in either the absence or presence of IL-3, to assess the compound inhibition of FLT3 or to detect the presence of off-target activity, respectively. Inhibitors of FLT3 kinase activity reduce or eliminate the FLT3 oncogenic signaling, resulting in reduced cell proliferation. This inhibition is measured as a function of compound concentration to assess IC50 values.
Cells were seeded at 1×10^4 cells per well of a 96 well cell culture plate in 50 μl of cell culture medium. Compounds were dissolved in DMSO, typically at a concentration of 5 mM and were serially diluted 1:3 for a total of eight points and added to the cells to final concentrations of 10, 3.3, 1.1, 0.37, 0.12, 0.041, 0.014 and 0.0046 μM in 100 μl cell culture medium (final concentration 0.2% DMSO). […] The cells were incubated at 37° C., 5% CO2 for three days. CellTiter-Glo Buffer (Promega Cell Viability Assay catalog #G7573) and substrate were equilibrated to room temperature, and enzyme/substrate Recombinant Firefly Luciferase/Beetle Luciferin was reconstituted. The cell plates were equilibrated to room temperature for 30 minutes, then lysed by addition of an equivalent volume of the Celltiter-Glo Reagent. The plate was mixed for 10 minutes on a plate shaker to lyse the cells. The plates were read on a Tecan M1000 using Luminescence protocol modified to read 0.1 s per well. The luminescence reading assesses the ATP content, which correlates directly with cell number such that the reading as a function of compound concentration was used to determine the IC50 value.

For the compound `CC(C)(C)n1cnc2ccc(-c3c[nH]c4ncc(-c5cccc(N6CCOCC6)c5)nc34)cc21` [P-226, 4-[3-[7-(3-tert-butylbenzimidazol-5-yl)-5H-pyrrolo[2,3-b]pyrazin-2-yl]phenyl]morpholine], the GI50 lay in the range of 0.0001 to 1 µM.
As to `O=S1(=O)CCCCN1c1cccc(-c2cnc3[nH]cc(-c4ccc5ncn(C6CCCNC6)c5c4)c3n2)c1` (centres unmarked) [P-253, 2-[3-[7-[3-(3-piperidyl)benzimidazol-5-yl]-5H-pyrrolo[2,3-b]pyrazin-2-yl]phenyl]thiazinane 1,1-dioxide], the GI50 lay in the range of 0.0001 to 1 µM.
For the compound `FC(F)(F)Cn1cc(-c2cnc3[nH]cc(-c4ccc5ncn(C6CCCNC6)c5c4)c3n2)cn1` (centres unmarked) [P-258, 7-[3-(3-piperidyl)benzimidazol-5-yl]-2-[1-(2,2,2-trifluoroethyl)pyrazol-4-yl]-5H-pyrrolo[2,3-b]pyrazine], the GI50 was 0.0001 to 1 µM.
For `COc1cc(-c2cnc3[nH]nc(-c4ccc5ncn(C(C)(C)C)c5c4)c3c2)ccn1` [P-272, 3-(1-(tert-butyl)-1H-benzo[d]imidazol-6-yl)-5-(2-methoxypyridin-4-yl)-1H-pyrazolo[3,4-b]pyridine], the GI50 is 0.0001 to 1 µM.
With `FC(F)n1cc(-c2cnc3[nH]cc(-c4ccc5ncn(C6CCCNC6)c5c4)c3n2)cn1` (centres unmarked) [P-257, 2-[1-(difluoromethyl)pyrazol-4-yl]-7-[3-(3-piperidyl)benzimidazol-5-yl]-5H-pyrrolo[2,3-b]pyrazine], the GI50 was 0.0001 to 1 µM.
For `COc1cc(-c2cnc3[nH]cc(-c4ccc5ncn(C(C)(C)CO)c5c4)c3n2)ccn1` [P-186, 2-[6-[2-(2-methoxy-4-pyridyl)-5H-pyrrolo[2,3-b]pyrazin-7-yl]benzimidazol-1-yl]-2-methyl-propan-1-ol], the GI50 was 0.0001 to 1 µM.
In the case of `C#Cc1cnc2[nH]cc(-c3ccc4ncn(C5CCCNC5)c4c3)c2n1` (centres unmarked) [P-270, 2-ethynyl-7-[3-(3-piperidyl)benzimidazol-5-yl]-5H-pyrrolo[2,3-b]pyrazine] it was 0.0001 to 1 µM.
For `CC(C)(C)n1cnc2ccc(-c3c[nH]c4ncc(-c5cnc(N6CCOCC6)nc5)cc34)cc21` [P-266, 4-[5-[3-(3-tert-butylbenzimidazol-5-yl)-1H-pyrrolo[2,3-b]pyridin-5-yl]pyrimidin-2-yl]morpholine], the GI50 lay in the range of 0.0001 to 1 µM.
In the case of `COc1cc(-c2cnc3[nH]cc(-c4ccc5ncn(C6CCCN(C)C6)c5c4)c3n2)ccn1` (centres unmarked) [P-271, 2-(2-methoxy-4-pyridyl)-7-[3-(1-methyl-3-piperidyl)benzimidazol-5-yl]-5H-pyrrolo[2,3-b]pyrazine] it was 0.0001 to 1 µM; in that of `COc1cc(C#Cc2cnc3[nH]cc(-c4ccc5ncn(C(C)(C)C)c5c4)c3c2)ccn1` [P-240, 1-(tert-butyl)-6-(5-((2-methoxypyridin-4-yl)ethynyl)-1H-pyrrolo[2,3-b]pyridin-3-yl)-1H-benzo[d]imidazole], 0.0001 to 1 µM; in that of `COc1cc(-c2cnc3[nH]cc(-c4ccc5ncn(C6CCCN(C(C)=O)C6)c5c4)c3n2)ccn1` (centres unmarked) [P-260, 1-[3-[6-[2-(2-methoxy-4-pyridyl)-5H-pyrrolo[2,3-b]pyrazin-7-yl]benzimidazol-1-yl]-1-piperidyl]ethanone], 0.0001 to 1 µM.
As for `COc1cc(C#Cc2cnc3[nH]cc(-c4ccc5ncn(C6CCCNC6)c5c4)c3c2)ccn1` (centres unmarked) [P-241, 5-[2-(2-methoxy-4-pyridyl)ethynyl]-3-[3-(3-piperidyl)benzimidazol-5-yl]-1H-pyrrolo[2,3-b]pyridine], the figure is 0.0001 to 1 µM.
As to `CC(C)(C)n1cnc2ccc(-c3c[nH]c4ncc(NC(=O)c5cccc(C#N)c5)cc34)cc21` [P-235, N-[3-(3-tert-butylbenzimidazol-5-yl)-1H-pyrrolo[2,3-b]pyridin-5-yl]-3-cyano-benzamide], the GI50 is 0.0001 to 1 µM.
Regarding `COc1cc(-c2cnc3[nH]cc(-c4ccc5ncn(C(C)(C)C)c5c4)c3n2)ccn1` [P-099, 7-(3-tert-butylbenzimidazol-5-yl)-2-(2-methoxy-4-pyridyl)-5H-pyrrolo[2,3-b]pyrazine], the GI50 lay within 0.0001 to 1 µM.
